The text below walks through data of US20130178609A1, “MODULAR CONSTRUCTION OF LIPOPHOSPHOLIPIDS” (Centre National de la Recherche Scientifique - CNRS, priority 2010, published 2013).

The nature of this series: Fluorescence excitation/emission maxima and molar absorption of the fluorescent phospholipids in EtOH. In kind it is physicochemical.

Values joined by “and” are separate entries in the source; they are usually repeats but may differ in a detail not shown here. Identical values can stand only once.

Take `CCCCCCCC/C=C\CCCCCCCCOP(=O)(NCc1cn(-c2cc3ccc(O)cc3oc2=O)nn1)OCCCCCCCC/C=C\CCCCCCCC` [Compound 4a]: the “λmax,em” value was 425 nm and 479 nm; the “λmax,exc” value was 349 nm and 412 nm.
